We go through eleven compounds from ChEMBL document CHEMBL1130794, “Phthalimidomethyl as a drug pro-moiety. Probing its reactivity” (Bioorg Med Chem Lett, 1998).

The data set is described as follows: Second-order rate constant for the alkaline hydrolysis was determined. In kind it is ADME.

Compound `O=C(OCN1C(=O)c2ccccc2C1=O)c1ccc([N+](=O)[O-])cc1` gave a kHO of 76.8 M⁻¹ s⁻¹. As for `O=C1c2ccccc2C(=O)N1CCl`, the figure is 105.8 M⁻¹ s⁻¹.

`Cc1ccc2c(c1)C(=O)N(COC(=O)c1ccccc1)C2=O` showed a kHO of 27.3 M⁻¹ s⁻¹. In turn, `CN1C(=O)c2ccccc2C1=O` registered a kHO of 37.5 M⁻¹ s⁻¹. Compound `O=C1c2ccccc2C(=O)N1CO[N+](=O)[O-]` displayed a kHO of 79.7 M⁻¹ s⁻¹.

In turn, `O=C(OCN1C(=O)c2ccccc2C1=O)c1ccccc1` returned a kHO of 50.4 M⁻¹ s⁻¹.

Consider `COCN1C(=O)c2ccccc2C1=O`, for which the kHO amounted to 35.3 M⁻¹ s⁻¹. For the compound `O=C(OCN1C(=O)c2ccc([N+](=O)[O-])cc2C1=O)c1ccccc1`, the kHO was 559 M⁻¹ s⁻¹. Then `COc1ccc(C(=O)OCN2C(=O)c3ccccc3C2=O)cc1`, with 33.9 M⁻¹ s⁻¹. Compound `CC1(C)S[C@@H]2[C@H](NC(=O)Cc3ccccc3)C(=O)N2[C@H]1C(=O)OCN1C(=O)c2ccccc2C1=O` yielded a kHO of 65.6 M⁻¹ s⁻¹. As for `O=C(OCN1C(=O)c2ccccc2C1=O)c1ccc(Cl)cc1`, the figure is 56.7 M⁻¹ s⁻¹.
